Measured values taken from patent US12534501B2, “Targeting deregulated Wnt signaling in cancer using stabilized alpha-helices of BCL-9” (Dana-Farber Cancer Institute, Inc., priority 2011, dated 2026).
Numbered stars: 1 amine (or outer) side, 2 acyl side, 3 side chain; on linkers, the order of the positions; unused ones are H or OH. Bridge positions count the residues as written; N and C are the ends. Square brackets hold non-standard residues; d marks the D form. Peptide text beside a SMILES is read from it. ξ: configuration not given here. ξαMeNle(6-ylidene) = CC(CCCC=[*:3])(N[*:1])C(=O)[*:2]; Nle = CCCC[C@H](N)C(=O)O

Assays:
[1] = test system: TCF regulatory sequences (7×TdG) in Colo320 cells; assay: dGFP reporter under TCF regulatory sequences (7×TdG); assay type: cell-based
Text: A lentiviral reporter vector containing seven TCF/LEF-1 binding motifs and a minimal promoter driving destabilized GFP expression (7×TdG) was derived from the lentiviral vector TOP-dGFP, which contains three TCF/LEF-1 binding motifs (Sukhdeo, K. et al. Proc Natl Acad Sci USA 104, 7516-21 (2007)). Two synthetic complementary oligonucleotides (IDT-DNA) with four TCF/LEF-1 binding motifs (GATCAAAGG) were designed to generate compatible overhanging ends for annealing to an Xba1 restriction site. The oligonucleotides were annealed by heating to 95° C. and slow cooling to room temperature, followed by ligating into the Xba1-linearized TOP-dGFP vector, yielding 7×TdG. For construction of the control vector carrying seven FOP-sites (7×FdG), the 7×TOP cassette was removed from the 7×TdG vector by restriction digesting with Xma1 and Age1. A synthetic cassette carrying seven FOP sites (GGCCAAAGG) but otherwise identical to the removed 7×TOP cassette was inserted, yielding 7×FdG. BCL9 shRNA and control shRNA lentiviral vectors were generated as reported (Sampietro, J. et al. Mol Cell 24, 293-300 (2006)). See results in FIG. 10, FIG. 11B. […]
Colo320 cells were subjected to infection for 72 h with either 7×TdG or 7×FdG lentivirus, and the transduced and control non-transduced cells were trypsinized, washed, and then analyzed on a FACSaria flow sorter. […]

[2] = test system: Wnt target genes in MM1S cells; assay: qRT-PCR of Wnt/β-catenin target genes; assay type: cell-based; conditions: MM1S (FIG. 19A), 10 μM
Protocol: To measure the effects of vehicle, SAH-BCL9B, and SAH-BCL9MUT on the expression of Wnt/β-catenin target genes, including VEGF, in Colo320 (FIG. 18) and MM1S (FIG. 19) cell lines, quantitative PCR (qRT-PCR) analysis was performed. RNA was extracted with TRIzol Reagent (Invitrogen) according to the manufacturer's protocol. Total RNA (2 μg) was reverse transcribed (SuperScript VILO cDNA synthesis kit, Invitrogen) and qPCR was performed using an Applied Biosynthesis 7500 Real-time PCR system. PCR primers were designed as below: […]
Analysis of target genes was conducted in quadruplicate using POWER SYBR Green Master Mix (Applied Biosystems) as previously described (M. Mani et al., Cancer Res 69, 7577 (2009)). Transcripts levels were normalized to β-actin expression. These experiments were repeated three times.

[3] = test system: colorectal primary tumors (CCPT); assay: Cell proliferation, [3H]thymidine uptake; assay type: cell-based, human; conditions: primary CRC cells; 5 μM, 24 h
Text: (§1) Bone marrow specimens were obtained from patients with MM in accordance with Dana-Farber Cancer Institute Review Board approval and informed consent performed in compliance with the Declaration of Helsinki. Primary CD138+ plasma cells were purified using magnetic beads as described (Sukhdeo, K. et al. Proc Natl Acad Sci USA 104, 7516-21 (2007)). CRC primary tumor samples were obtained from the Brigham and Women's Hospital in accordance with the policies of their Institutional Review Board. To generate sufficient CRC primary tumor cells for experimentation, the primary tumors were first expanded subcutaneously in NOD/SCID mice (Jackson Laboratory). After the tumors reached 2 cm in diameter, mice were sacrificed according to institutional guidelines and subcutaneous tumor xenografts were minced with a scalpel and digested by incubation with collagenase IV (Worthington Biomedical Corporation) and 0.01% DNase I (Sigma-Aldrich) at 37° C. for 30 min, followed by additional mechanical disaggregation using a Stomacher device (Seward Laboratory Systems Inc.). […]
(§2) Cell proliferation assays were performed as described (Sukhdeo, K. et al. Proc Natl Acad Sci USA 104, 7516-21 (2007)). Cell viability was measured using the CellTiter-Glo assay (Promega) according to the manufacturer's instructions. Apoptosis was evaluated by activated caspase-3 and PARP western blotting. […]

[4] = test system: multiple myeloma primary tumors (MMPT); assay: Cell proliferation, [3H]thymidine uptake; assay type: cell-based, human; conditions: primary MM cells; 5 μM
Text: as §1, §2

[5] = test system: caspase-3 or PARP; assay: Apoptosis by activated caspase-3 and PARP western blotting; assay type: cell-based; conditions: western analysis
Protocol: Cell proliferation assays were performed as described (Sukhdeo, K. et al. Proc Natl Acad Sci USA 104, 7516-21 (2007)). Cell viability was measured using the CellTiter-Glo assay (Promega) according to the manufacturer's instructions. Apoptosis was evaluated by activated caspase-3 and PARP western blotting. See results in FIG. 3A-FIG. 3F, FIG. 13, and FIG. 20.

[6] = test system: Colo320 cells; assay: Combination with 5-fluorouracil, 3H-thymidine incorporation; assay type: cell-based; conditions: Colo320, increasing concentrations of 5-FU
Protocol: (§3) To test whether the anti-proliferative effect of SAH-BCL9B could synergize with other agents commonly used to treat MM or CRC, combination treatment studies were conducted. Indeed, the cytotoxic effects of 5-fluorouracil on CRC cells and of doxorubicin on MM cells were enhanced by SAH-BCL9B, but not by vehicle or the mutant peptide. See results in FIG. 21.

[7] = test system: MM1S cells; assay: Combination with doxorubicin, 3H-thymidine incorporation; assay type: cell-based; conditions: increasing concentrations of Dox
Protocol: as §3

| Compound | dGFP expression [1] | mRNA levels of VEGF, c-MYC, LGR5, LEF1, and AXIN2 [2] | proliferation [3] | proliferation [4] | caspase-3 or PARP activation [5] | enhancement of anti-tumor activity of 5-fluorouracil [6] | enhancement of anti-tumor activity of doxorubicin [7] |
| --- | --- | --- | --- | --- | --- | --- | --- |
| CCCC[C@H](NC(=O)[C@H](CCCNC(=N)N)NC(=O)[C@H](CCC(N)=O)NC(=O)[C@@H](NC(=O)C1(C)CCCC=CCCCC(C)(NC(=O)[C@H](CC(C)C)NC(=O)[C@H](CO)NC(=O)[C@H](CCCNC(=N)N)NC(=O)[C@H](CCC(=O)O)NC(=O)[C@H](CCCNC(=N)N)NC(=O)[C@H](Cc2c[nH]cn2)NC(=O)[C@H](CCC(=O)O)NC(=O)[C@H](CC(C)C)NC(=O)[C@H](CCC(N)=O)NC(=O)[C@H](CCC(=O)O)NC(=O)[C@H](CCC(N)=O)NC(=O)[C@H](CO)NC(=O)[C@H](CC(C)C)NC(C)=O)C(=O)N[C@@H]([C@@H](C)O)C(=O)N[C@@H](CC(C)C)C(=O)N[C@@H](CCCNC(=N)N)C(=O)N1)[C@@H](C)CC)C(=O)N[C@@H](CC(C)C)C(=O)N[C@@H](Cc1ccccc1)C(N)=O (some centres unmarked) [SAH-BCL9B] (Ac-LSQEQLEHRERSL[ξαMeNle(6-ylidene)]TLR[ξαMeNle(6-ylidene)]IQR[Nle]LF-NH2; staple 14-18) | dose-responsively blocked dGFP expression | dose-responsively reduced | reduced the proliferation | reduced the proliferation | did not activate caspase-3 or PARP | significantly enhanced the anti-tumor activity | significantly enhanced the anti-tumor activity |
| SAH-BCL9B(R359E): SEQ ID NO: 7: LSQEQLEHEERSLXTLRXIQRBLF; reverse polarity point mutant, negative control of SAH-BCL9B | little to no effect |  |  |  |  |  |  |
